Results on 7 compounds are retold here after patent publication US20220362245A1, “COMPOUNDS FOR INHIBITING FGFR4” (Terns Pharmaceuticals, Inc., priority 2019, published 2022).

Experiment [1] addresses FGFR1 (Homo sapiens, UniProt P11362). The experiment in a line: FGFR inhibition assay (33P-ATP radiometric kinase assay), FGFR1. It counts as biochemical. Conditions: 20 μM KKKSPGEYVNIEFG peptide substrate, 10 μM final ATP, 2 hours at room temperature. The method, then:
(§1) The potency of test compounds in inhibiting FGFR1 and FGFR4 was determined. 20 μM of [KKKSPGEYVNIEFG] peptide substrate was added to the reaction buffer (20 mM 4-(2-hydroxyethyl)-1-piperazineethanesulfonic acid (HEPES) (pH 7.5), 10 mM MgCl2, 1 mM egtazic acid (EGTA), 0.02% BRIJ®-35, 0.02 mg/ml bovine serum albumin (BSA), 0.1 mM Na3VO4, 2 mM dithiothreitol (DTT), and 1% DMSO) for FGFR1. 0.2 mg/mL of poly[Glu:Tyr] (4:1) peptide substrate was added to the reaction buffer (20 mM 4-(2-hydroxyethyl)-1-piperazineethanesulfonic acid (HEPES) (pH 7.5), 10 mM MgC12, 1 mM egtazic acid (EGTA), 0.02% BRIJ®-35, 0.02 mg/ml bovine serum albumin (BSA), 0.1 mM Na3VO4, 2 mM dithiothreitol (DTT), and 1% DMSO) for FGFR4. Next, FGFR1 or FGFR4 was added to the substrate solution and gently mixed.
(§2) Test compounds were dissolved in 100% dimethyl sulphoxide (DMSO) and then three-fold serially diluted in DMSO using an epMotion® 5070 robotic pipettor. The diluted test compounds, from 0.00001 M to 5.08053E-10 M, were added to corresponding substrate solutions, and the resulting substrate/compound solutions were incubated for 20 min at room temperature. Radioactive ATP (^33P-ATP) was added to each substrate/compound solution to initiate the kinase activity of FGFR1 or FGFR4 and were incubated for 2 hours at room temperature (10 μM final [ATP]). Reactions were spotted onto P81 ion exchange paper, washed to remove excess radiolabeled ATP and kinase activity determined by quantification of radioactive spots.
(§3) The half maximal inhibitory concentration (IC50) values for FGFR1 and FGFR4 were determined for each compound assayed and are shown in Table 2.

For experiment [2], the target named is FGFR4 (Homo sapiens, UniProt P22455). The experiment in a line: FGFR inhibition assay (33P-ATP radiometric kinase assay), FGFR4. The settings on record: for IC50: 0.2 mg/mL poly[Glu:Tyr] (4:1) substrate, 10 μM final ATP, 2 hours at room temperature; for inhibition of FGFR4 compared with FGFR1 (selectivity): concentration inhibiting FGFR4 versus concentration inhibiting FGFR1, from Table 2 IC50 values. Format: biochemical. The method, then: as §1, §2, §3
Sequence of FGFR4 (P22455 22-802): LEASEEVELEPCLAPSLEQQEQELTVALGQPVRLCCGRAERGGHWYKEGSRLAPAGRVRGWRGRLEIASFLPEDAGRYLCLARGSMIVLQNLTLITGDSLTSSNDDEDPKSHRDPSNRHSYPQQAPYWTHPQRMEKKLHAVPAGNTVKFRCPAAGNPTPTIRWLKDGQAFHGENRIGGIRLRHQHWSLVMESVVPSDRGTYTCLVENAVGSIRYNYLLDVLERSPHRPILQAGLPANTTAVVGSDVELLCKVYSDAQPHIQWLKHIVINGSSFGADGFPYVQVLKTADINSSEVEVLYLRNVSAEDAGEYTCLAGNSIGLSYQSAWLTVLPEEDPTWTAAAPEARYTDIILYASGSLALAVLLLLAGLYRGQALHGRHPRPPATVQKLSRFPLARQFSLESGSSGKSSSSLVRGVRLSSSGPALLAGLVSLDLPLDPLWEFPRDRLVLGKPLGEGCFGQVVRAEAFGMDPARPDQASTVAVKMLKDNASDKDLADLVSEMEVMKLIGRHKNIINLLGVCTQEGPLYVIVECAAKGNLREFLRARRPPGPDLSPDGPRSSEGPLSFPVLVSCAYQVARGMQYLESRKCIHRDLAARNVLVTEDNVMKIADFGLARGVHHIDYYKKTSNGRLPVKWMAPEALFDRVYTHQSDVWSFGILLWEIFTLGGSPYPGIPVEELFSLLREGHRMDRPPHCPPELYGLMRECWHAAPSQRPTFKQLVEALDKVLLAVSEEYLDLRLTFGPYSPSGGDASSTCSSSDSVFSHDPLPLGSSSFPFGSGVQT

Sequence of FGFR1 (P11362 22-822): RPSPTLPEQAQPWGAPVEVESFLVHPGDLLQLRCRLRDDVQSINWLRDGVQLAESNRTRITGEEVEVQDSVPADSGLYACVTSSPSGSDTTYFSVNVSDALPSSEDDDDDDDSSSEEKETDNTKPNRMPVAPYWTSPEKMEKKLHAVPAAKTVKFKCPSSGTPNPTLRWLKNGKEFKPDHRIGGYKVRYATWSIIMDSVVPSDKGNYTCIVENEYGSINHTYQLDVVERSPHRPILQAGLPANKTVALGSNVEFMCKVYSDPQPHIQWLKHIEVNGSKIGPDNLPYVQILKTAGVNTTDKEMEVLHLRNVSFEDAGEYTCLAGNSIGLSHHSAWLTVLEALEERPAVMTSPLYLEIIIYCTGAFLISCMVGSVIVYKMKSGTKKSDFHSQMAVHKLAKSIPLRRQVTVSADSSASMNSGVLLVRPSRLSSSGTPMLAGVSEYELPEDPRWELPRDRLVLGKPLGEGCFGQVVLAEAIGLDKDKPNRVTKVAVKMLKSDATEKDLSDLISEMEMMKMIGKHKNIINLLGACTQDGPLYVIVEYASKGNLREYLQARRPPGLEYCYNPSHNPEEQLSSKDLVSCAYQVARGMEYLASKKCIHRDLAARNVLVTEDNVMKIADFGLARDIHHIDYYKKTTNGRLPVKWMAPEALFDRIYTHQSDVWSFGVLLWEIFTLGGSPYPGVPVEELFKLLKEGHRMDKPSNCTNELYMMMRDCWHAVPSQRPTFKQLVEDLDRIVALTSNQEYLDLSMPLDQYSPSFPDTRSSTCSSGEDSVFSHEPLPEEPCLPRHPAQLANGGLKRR

For the compound `COc1cc(OC)c(F)c(CCc2cnc(NC(=O)N3CCCc4ccc(C=O)nc43)nc2)c1F` [Example 6, N-(5-(2,6-difluoro-3,5-dimethoxyphenethyl)pyrimidin-2-yl)-7-formyl-3,4-dihydro-1,8-naphthyridine-1(2H)-carboxamide], the values for the half-inhibitory concentration (IC50) in experiment [1] and in experiment [2] were 63 nM and 1 nM, respectively.

Regarding `COc1cc(OC)c(F)c(C#Cc2cnc(NC(=O)N3CCCc4ccc(C=O)nc43)nc2)c1F` [Example 8, N-(5-((2,6-difluoro-3,5-dimethoxyphenyl)ethynyl)pyrimidin-2-yl)-7-formyl-3,4-dihydro-1,8-naphthyridine-1(211)-carboxamide], the half-inhibitory concentration (IC50) (in general, the concentration that gives 50% inhibition) in experiment [1] came out at 330 nM; in experiment [2], 2.5 nM.

As for `COc1cc(OC)c(F)c(COc2ccc(NC(=O)N3CCCc4ccc(C=O)nc43)nc2)c1F` [Example 2, N-(5-((2,6-difluoro-3,5-dimethoxybenzyl)oxy)pyridin-2-yl)-7-formyl-3,4-dihydro-1,8-naphthyridine-1(2H)-carboxamide], the IC50 in experiment [1] is greater than 10000 nM; in experiment [2] it was 5.9 nM. In addition, the “inhibition of FGFR4 compared with FGFR1 (selectivity)” value in experiment [2] is “dramatically lower concentration”.

Compound `COc1cc(OC)c(F)c(COc2cnc(NC(=O)N3CCCc4ccc(C=O)nc43)nc2)c1F` [Example 1, N-(5-((2,6-difluoro-3,5-dimethoxybenzyl)oxy)pyrimidin-2-yl)-7-formyl-3,4-dihydro-1,8-naphthyridine-1(2H)-carboxamide] returned an IC50 in experiment [1] of 5600 nM. Also, in experiment [2], the IC50 was 0.8 nM and the “inhibition of FGFR4 compared with FGFR1 (selectivity)” value is “dramatically lower concentration”.

For the compound `COc1cc(OC)c(F)c(/C=C/c2cnc(NC(=O)N3CCCc4ccc(C=O)nc43)nc2)c1F` [Example 7, (E)-N-(5-(2,6-difluoro-3,5-dimethoxystyryl)pyrimidin-2-yl)-7-formyl-3,4-dihydro-1,8-naphthyridine-1(2H)-carboxamide], the IC50 in experiment [1] was found to be 1000 nM; in experiment [2], 0.9 nM.

As for `COc1cc(OC)c(F)c(COc2cnc(NC(=O)N3CCCc4cc(CN5CCN(C)CC5=O)c(C=O)nc43)nc2)c1F` [Example 3, N-(5-((2,6-difluoro-3,5-dimethoxybenzyl)oxy)pyrimidin-2-yl)-7-formyl-6-((4-methyl-2-oxopiperazin-1-yl)methyl)-3,4-dihydro-1,8-naphthyridine-1(2H)-carboxamide], the IC50 in experiment [1] is 140 nM; in experiment [2], less than 0.5 nM.

Regarding `COc1cc(OC)c(F)c(COc2cnc(NC(=O)N3CCCc4c(C)cc(C=O)nc43)nc2)c1F` [Example 5, N-(5-((2,6-difluoro-3,5-dimethoxybenzyl)oxy)pyrimidin-2-yl)-7-formyl-5-methyl-3,4-dihydro-1,8-naphthyridine-1(2H)-carboxamide], the IC50 in experiment [1] was found to be 130 nM; in experiment [2] it was 1.9 nM.
